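Where inhibition never reached the appropriate level, the endpoint shown equals the highest concentration tested. Otherwise, values were interpolated linearly from a five-concentration, 48-hour dose response in 96-well plates. The concentration for 50% growth inhibition is given as GI50.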 Calls of active or inactive are those of the source. Rule as the data show it: active = GI50 up to about 1.1 µM and inactive = higher.
How the values were obtained:
Experiment in all cases: NCI tumour cell line growth inhibition, 48 h
A549 = test system: A549
ACHN = test system: ACHN
BT-549 = test system: BT-549
CAKI-1 = test system: CAKI-1
DU-145 = test system: DU-145
EKVX = test system: EKVX
HOP-62 = test system: HOP-62
IGROV-1 = test system: IGROV-1
LOX IMVI = test system: LOX IMVI
MDA-MB-231 = test system: MDA-MB-231
NCI-H460 = test system: NCI-H460
NCI-H522 = test system: NCI-H522
OVCAR-4 = test system: OVCAR-4
RPMI-8226 = test system: RPMI-8226
SF-268 = test system: SF-268
SR = test system: SR
SW-620 = test system: SW-620
T47D = test system: T47D
U-251 = test system: U-251
NCI/ADR-RES = test system: NCI/ADR-RES

Measured: GI50

N=C1OC(c2cccc(Cl)c2)C(NNS(=O)(=O)c2ccccc2)=C1O (configuration not stated)
inactive: A549 80.9 µM | ACHN 31.6 µM | BT-549 37 µM | CAKI-1 31.4 µM | DU-145 > 100 µM | EKVX 68.4 µM | HOP-62 > 100 µM | IGROV-1 70.5 µM | LOX IMVI 20.7 µM | MDA-MB-231 18.2 µM | NCI-H460 44.1 µM | NCI-H522 10.6 µM | OVCAR-4 52.5 µM | RPMI-8226 10.9 µM | SF-268 39.7 µM | SR 2.37 µM | SW-620 12.8 µM | T47D 10 µM | U-251 33.3 µM

c1ccc(CCN2CCc3[nH]c4ccccc4c3C2)cc1
inactive: A549 24.6 µM | ACHN 28.1 µM | DU-145 > 100 µM | EKVX 33.4 µM | HOP-62 19.5 µM | IGROV-1 23.9 µM | LOX IMVI 19.5 µM | MDA-MB-231 33 µM | NCI-H460 13.7 µM | NCI/ADR-RES 20.3 µM | OVCAR-4 40.4 µM | RPMI-8226 > 10 µM | SF-268 71.1 µM | SR 27.9 µM | SW-620 16.1 µM | T47D 20.1 µM | U-251 18 µM

O=C1c2ccccc2C(=O)c2sc(Nc3ccc(Cl)c(Cl)c3)nc21
inactive: A549 23.5 µM | ACHN 1.75 µM | CAKI-1 3.07 µM | DU-145 18.8 µM | EKVX 14.3 µM | HOP-62 7.38 µM | IGROV-1 3.82 µM | LOX IMVI 2.17 µM | MDA-MB-231 2.17 µM | NCI-H460 12.5 µM | NCI-H522 2.07 µM | OVCAR-4 2.21 µM | RPMI-8226 2.02 µM | SF-268 4.97 µM | SR 2.52 µM | SW-620 1.61 µM | T47D 4.03 µM | U-251 2.43 µM

COc1ccc2c3c1O[C@H]1C(OC)C=CC4C(C2)N(Cc2cccs2)CCC341 (some centres not stated)
inactive: A549 53.8 µM | ACHN > 10 µM | BT-549 40.1 µM | CAKI-1 > 100 µM | EKVX 88.3 µM | HOP-62 > 100 µM | IGROV-1 > 100 µM | LOX IMVI > 100 µM | NCI-H460 > 100 µM | NCI-H522 > 100 µM | NCI/ADR-RES 33.7 µM | RPMI-8226 62.1 µM | SF-268 > 100 µM | SR 75.5 µM | SW-620 > 100 µM

N=C(N)SCc1ccc(N=C=S)cc1
inactive: A549 16.3 µM | ACHN 13.2 µM | CAKI-1 12.7 µM | DU-145 15.9 µM | EKVX 15.9 µM | HOP-62 16.6 µM | IGROV-1 12.9 µM | LOX IMVI 12.8 µM | MDA-MB-231 7.74 µM | NCI-H460 14.9 µM | NCI-H522 10 µM | NCI/ADR-RES 16.9 µM | OVCAR-4 14.3 µM | RPMI-8226 12.4 µM | SF-268 20.2 µM | SR 17.6 µM | SW-620 12.9 µM | T47D 13.6 µM | U-251 15.2 µM

CC(=O)Nc1ccc(NC(=O)c2c(Cl)c(Cl)c(Cl)c(Cl)c2-c2nc3ccccc3[nH]2)cc1
inactive: A549 36.4 µM | ACHN 39.2 µM | BT-549 43.1 µM | CAKI-1 38.7 µM | DU-145 46.8 µM | EKVX 33.3 µM | HOP-62 53.3 µM | IGROV-1 20.5 µM | NCI-H460 24.7 µM | NCI-H522 36.7 µM | OVCAR-4 45.2 µM | RPMI-8226 23 µM | SF-268 53.5 µM | SR 27.2 µM | SW-620 48.5 µM | T47D 25.7 µM

NS(=O)(=O)c1ccc(N2C(=O)C(=O)N(c3ccccc3)C2=S)cc1
inactive: A549 > 100 µM | ACHN > 100 µM | CAKI-1 > 100 µM | DU-145 > 100 µM | EKVX 93.8 µM | HOP-62 > 100 µM | IGROV-1 > 100 µM | LOX IMVI > 100 µM | MDA-MB-231 > 100 µM | NCI-H460 > 100 µM | NCI-H522 27 µM | NCI/ADR-RES > 100 µM | OVCAR-4 30.6 µM | RPMI-8226 > 100 µM | SF-268 > 100 µM | SR 18.9 µM | SW-620 > 100 µM | T47D 55.1 µM | U-251 > 100 µM

N=c1c2ccccc2nc2oc3ccccc3n12
inactive: A549 33.8 µM | ACHN 30.5 µM | BT-549 51.2 µM | CAKI-1 44.4 µM | EKVX 1.91 µM | HOP-62 23.2 µM | IGROV-1 20.6 µM | LOX IMVI 53.8 µM | NCI-H460 > 10 µM | NCI/ADR-RES 31.5 µM | OVCAR-4 29 µM | RPMI-8226 > 100 µM | SF-268 14.9 µM | SW-620 93.5 µM

CC(=O)OC1CC[C@@]2(C)C(CC[C@]3(C)C2CC=C2[C@@H]4CC(C)(C)CCC4(C)CCC23C)[C@@]1(C)C(=O)O (some centres not stated)
inactive: A549 7.41 µM | ACHN 12.1 µM | BT-549 29.9 µM | CAKI-1 18.5 µM | DU-145 16.6 µM | EKVX 16.1 µM | HOP-62 19.9 µM | IGROV-1 16.4 µM | LOX IMVI 13.8 µM | MDA-MB-231 20.9 µM | NCI-H460 10.7 µM | NCI-H522 5.77 µM | OVCAR-4 14.9 µM | RPMI-8226 10.8 µM | SF-268 18.2 µM | SR 22.8 µM | SW-620 13.5 µM | T47D 15.4 µM | U-251 10.3 µM

N=C(CSSCC(=N)NCC12CC3CC(CC(C3)C1)C2)NCC12CC3CC(CC(C3)C1)C2
inactive: A549 13.7 µM | ACHN 13.3 µM | CAKI-1 18.7 µM | DU-145 16.9 µM | HOP-62 32.1 µM | IGROV-1 15.9 µM | MDA-MB-231 2.12 µM | NCI-H460 29.2 µM | NCI-H522 15.1 µM | NCI/ADR-RES 17.1 µM | OVCAR-4 14.4 µM | RPMI-8226 2.33 µM | SF-268 37.7 µM | SW-620 17.5 µM | T47D 17.9 µM | U-251 14.3 µM

C[n+]1c(-c2ccc(/C=N\Nc3ccnc(N/N=C/c4ccc(-c5cn6ccsc6[n+]5C)cc4)n3)cc2)cn2ccsc21
inactive: A549 31.3 µM | ACHN 32.5 µM | CAKI-1 22.7 µM | DU-145 27.8 µM | EKVX 24.8 µM | HOP-62 18.1 µM | IGROV-1 11.2 µM | MDA-MB-231 15.2 µM | NCI-H460 23 µM | NCI-H522 > 100 µM | NCI/ADR-RES 51.2 µM | OVCAR-4 58.1 µM | RPMI-8226 4.65 µM | SR 12.6 µM | SW-620 32.7 µM | U-251 32.6 µM

Cc1ccc(S(=O)(=O)NC(=O)Nc2cccc(S(N)(=O)=O)c2)cc1
inactive: A549 > 100 µM | ACHN > 100 µM | CAKI-1 > 100 µM | DU-145 > 100 µM | EKVX > 100 µM | HOP-62 > 100 µM | IGROV-1 > 100 µM | LOX IMVI > 100 µM | MDA-MB-231 > 100 µM | NCI-H460 > 100 µM | NCI-H522 > 100 µM | NCI/ADR-RES > 100 µM | OVCAR-4 > 100 µM | RPMI-8226 > 100 µM | SF-268 > 100 µM | SR > 100 µM | SW-620 > 100 µM | T47D > 100 µM | U-251 > 100 µM
